For assay [1], the target named is T1, JAK1 (Homo sapiens, UniProt P23458).
T1 construct: purchased Invitrogen
The assay can be described thus: JAK1 enzyme inhibition test (LANCE method). The assay is classed as biochemical. The following applies: for inhibition at 1 µM / Inhibitory rate (%) JAK1 1 μM: test compound 1 μM; for inhibition at 1 µM: read-out: Inhibitory rate (%) JAK1 1 μM; for inhibition at 10 µM: read-out: Inhibitory rate (%) JAK1 10 μM. In a few lines: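 TR-FRET (LANCE) kinase assay using JAK1 at 187.5 ng/mL, ULight-JAK1 peptide at 300 nM and ATP at 150 μM, given as solution concentrations before mixing. Buffer was 50 mM HEPES pH 7.5 with 10 mM MgCl2 and 2 mM DTT, and the reaction ran 1 h at room temperature. Eu anti-phosphotyrosine signal at 665 nm was expressed relative to a no-enzyme well, taken as 100% inhibition.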

Assay [2] addresses T2, Tyk2 (Homo sapiens, UniProt P29597).
T2 construct: purchased Invitrogen
The assay can be described thus: Tyk2 enzyme inhibition test (LANCE method). The assay is classed as biochemical. The following applies: for inhibition at 1 µM / Inhibitory rate (%) Tyk2 1 μM: test compound 1 μM; for inhibition at 1 µM: read-out: Inhibitory rate (%) Tyk2 1 μM. In a few lines:
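Recombinant Tyk2 (375 ng/mL stock) with ULight-JAK1 peptide (300 nM stock) and ATP (30 μM stock) in HEPES pH 7.5/MgCl2/EGTA/DTT buffer, 1 h at room temperature. Stopped with EDTA plus Eu-anti-phosphotyrosine antibody; TR-FRET read at 665 nm after 1 h. No-enzyme wells define 100% inhibition.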

Setting [3] is: test compound 10 μM (Ex. 182-220), beside Tyk2 1 μM.

The structures appear in SMILES notation. Where two headings read alike, the source gives them in different places.

T1 sequence (P23458 whole entry): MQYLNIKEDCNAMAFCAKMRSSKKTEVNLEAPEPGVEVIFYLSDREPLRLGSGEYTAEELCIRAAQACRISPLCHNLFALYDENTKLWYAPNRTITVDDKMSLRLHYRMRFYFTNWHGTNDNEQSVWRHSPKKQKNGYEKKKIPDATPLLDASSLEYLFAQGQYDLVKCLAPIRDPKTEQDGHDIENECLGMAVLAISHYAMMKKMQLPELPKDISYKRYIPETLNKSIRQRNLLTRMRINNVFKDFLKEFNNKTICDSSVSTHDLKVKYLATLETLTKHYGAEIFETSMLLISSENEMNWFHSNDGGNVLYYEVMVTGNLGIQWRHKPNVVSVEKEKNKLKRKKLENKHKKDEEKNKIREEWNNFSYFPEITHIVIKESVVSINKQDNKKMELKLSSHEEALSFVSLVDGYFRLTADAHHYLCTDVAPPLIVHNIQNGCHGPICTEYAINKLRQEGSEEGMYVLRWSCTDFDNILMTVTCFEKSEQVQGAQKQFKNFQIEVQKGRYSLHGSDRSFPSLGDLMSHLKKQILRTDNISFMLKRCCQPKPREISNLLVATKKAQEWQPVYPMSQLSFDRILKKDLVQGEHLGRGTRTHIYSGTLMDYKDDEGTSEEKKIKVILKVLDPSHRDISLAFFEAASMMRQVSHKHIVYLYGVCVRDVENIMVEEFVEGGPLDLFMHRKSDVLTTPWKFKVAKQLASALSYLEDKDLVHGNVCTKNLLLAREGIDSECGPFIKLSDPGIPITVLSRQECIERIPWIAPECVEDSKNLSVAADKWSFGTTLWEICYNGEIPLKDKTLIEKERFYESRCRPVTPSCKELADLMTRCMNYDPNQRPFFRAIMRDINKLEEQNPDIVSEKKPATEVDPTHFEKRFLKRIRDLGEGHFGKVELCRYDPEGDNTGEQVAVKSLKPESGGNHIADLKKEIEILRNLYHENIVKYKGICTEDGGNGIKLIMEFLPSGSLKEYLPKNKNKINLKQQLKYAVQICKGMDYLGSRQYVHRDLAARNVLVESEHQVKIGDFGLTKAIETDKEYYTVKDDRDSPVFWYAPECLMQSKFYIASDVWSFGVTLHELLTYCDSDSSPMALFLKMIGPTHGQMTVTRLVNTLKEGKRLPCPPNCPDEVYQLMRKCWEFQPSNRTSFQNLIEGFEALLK
T2 sequence (P29597 whole entry): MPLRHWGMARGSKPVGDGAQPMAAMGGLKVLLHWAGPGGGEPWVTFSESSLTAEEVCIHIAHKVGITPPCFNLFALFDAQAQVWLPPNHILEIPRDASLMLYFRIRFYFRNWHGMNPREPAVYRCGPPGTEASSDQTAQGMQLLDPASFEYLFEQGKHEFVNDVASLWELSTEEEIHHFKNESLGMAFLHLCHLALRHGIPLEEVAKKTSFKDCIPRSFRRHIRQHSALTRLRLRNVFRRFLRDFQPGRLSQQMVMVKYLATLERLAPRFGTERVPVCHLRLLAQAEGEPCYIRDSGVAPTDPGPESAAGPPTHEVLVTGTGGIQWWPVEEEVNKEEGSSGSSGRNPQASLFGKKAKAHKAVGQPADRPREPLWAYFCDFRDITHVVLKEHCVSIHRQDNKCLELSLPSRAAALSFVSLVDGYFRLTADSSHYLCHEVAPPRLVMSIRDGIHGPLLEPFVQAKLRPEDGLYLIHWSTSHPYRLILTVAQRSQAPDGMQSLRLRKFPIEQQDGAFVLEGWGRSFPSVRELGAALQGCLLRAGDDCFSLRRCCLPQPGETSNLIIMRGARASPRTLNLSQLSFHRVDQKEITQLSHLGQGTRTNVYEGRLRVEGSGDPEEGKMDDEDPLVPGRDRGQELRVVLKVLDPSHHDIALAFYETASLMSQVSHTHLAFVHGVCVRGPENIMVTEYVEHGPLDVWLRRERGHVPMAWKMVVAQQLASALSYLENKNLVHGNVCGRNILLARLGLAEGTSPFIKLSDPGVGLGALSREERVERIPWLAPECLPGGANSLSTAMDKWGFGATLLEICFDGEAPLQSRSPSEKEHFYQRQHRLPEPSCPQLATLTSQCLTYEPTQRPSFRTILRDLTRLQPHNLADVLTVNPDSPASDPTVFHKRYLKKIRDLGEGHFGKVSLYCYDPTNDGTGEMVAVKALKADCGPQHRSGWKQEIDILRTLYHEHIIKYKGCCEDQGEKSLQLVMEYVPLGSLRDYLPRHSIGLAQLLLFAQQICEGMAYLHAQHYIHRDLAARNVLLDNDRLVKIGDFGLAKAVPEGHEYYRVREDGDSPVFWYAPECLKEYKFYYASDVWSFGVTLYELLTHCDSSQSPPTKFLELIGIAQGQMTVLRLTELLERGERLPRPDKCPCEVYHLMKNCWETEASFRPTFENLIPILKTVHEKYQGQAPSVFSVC

As for `N#CCc1cccc(-c2cn(C3CCCC3)c3c(C#N)c[nH]c(=O)c23)c1` [Example 109, 3-(3-(cyanomethyl)phenyl)-1-cyclopentyl-4-oxo-4,5-dihydro-1H-pyrrolo[3,2-c]pyridine-7-carbonitrile], the inhibition at 1 µM in assay [1] is 61%; in assay [2] it was 94%.
Turning to `CCC(COC)n1nc(-c2csc(C(N)=O)c2)c2c(=O)[nH]ccc21` (stereo not drawn) [Example 150, 4-(1-(1-methoxybutan-2-yl)-4-oxo-4,5-dihydro-1H-pyrazolo[4,3-c]pyridin-3-yl)thiophene-2-carboxamide], the figures for the inhibition at 1 µM in assay [1] and in assay [2] were 99% and 98%, respectively.
Regarding `O=c1[nH]cc(Cl)c2c1c(-c1ccc(N3CCSCC3)cc1)nn2-c1c(F)cccc1F` [Example 236, 7-chloro-1-(2,6-difluorophenyl)-3-(4-(thiomorpholin-4-yl)phenyl)-1,5-dihydro-4H-pyrazolo[4,3-c]pyridin-4-one], the results for the inhibition at 1 µM in assay [1] and in assay [2] were 65% and 99%, respectively.
The like results for `N#Cc1c[nH]c(=O)c2c(-c3cccnc3)cn(C3CCCC3)c12` [Example 133, 1-cyclopentyl-4-oxo-3-(pyridin-3-yl)-4,5-dihydro-1H-pyrrolo[3,2-c]pyridine-7-carbonitrile] were, in that order, 47% and 90%.
Turning to `NS(=O)(=O)c1ccc(-c2nn(C3CCCOC3)c3cc[nH]c(=O)c23)cc1` (stereo not drawn) [Example 88, 4-(4-oxo-1-(tetrahydro-2H-pyran-3-yl)-4,5-dihydro-1H-pyrazolo[4,3-c]pyridin-3-yl)benzenesulfonamide], the “Inhibitory rate (%) JAK1 1 μM” value in assay [1] is 96%. The “Inhibitory rate (%) Tyk2 1 μM” value in assay [2] turned out to be 91%.
As for `NC(=O)c1cc(-c2nn([C@H]3CC[C@@H](O)CC3)c3cc[nH]c(=O)c23)cs1` [Example 184, 4-(1-(cis-4-hydroxycyclohexyl)-4-oxo-4,5-dihydro-1H-pyrazolo[4,3-c]pyridin-3-yl)thiophene-2-carboxamide], the inhibition at 10 µM in assay [1] (setting [3]) turned out to be 100%. Also, the inhibition at 1 µM in assay [2] was 99%.
Take `NS(=O)(=O)c1ccc(-c2cn(C3CCOCC3)c3cc[nH]c(=O)c23)cc1` [Example 16, 4-(4-oxo-1-(tetrahydro-2H-pyran-4-yl)-4,5-dihydro-1H-pyrrolo[3,2-c]pyridin-3-yl)benzenesulfonamide]: the inhibition at 1 µM is 93% in assay [1] and 88% in assay [2].
The corresponding values for `O=C1CCCN1Cc1ccc(-c2nn(-c3c(F)cccc3F)c3c(Cl)c[nH]c(=O)c23)cc1` [Example 224, 7-chloro-1-(2,6-difluorophenyl)-3-(4-((2-oxopyrrolidin-1-yl)methyl)phenyl)-1,5-dihydro-4H-pyrazolo[4,3-c]pyridin-4-one] are 78% and 99%.
The like results for `CC(C)(C)n1nc(-c2ccc(S(N)(=O)=O)cc2)c2c(=O)[nH]ccc21` [Example 86, 4-(1-tert-butyl-4-oxo-4,5-dihydro-1H-pyrazolo[4,3-c]pyridin-3-yl)benzenesulfonamide] were, in that order, 94% and 85%.
The corresponding values for `O=c1[nH]ccc2c1c(-c1ccccc1F)nn2C1CCCC1` [Example 56, 1-cyclopentyl-3-(2-fluorophenyl)-1,5-dihydro-4H-pyrazolo[4,3-c]pyridin-4-one] are 13% and 31%.
As for `N#Cc1c[nH]c(=O)c2c(-c3ccccc3)cn(C3CCCC3)c12` [Example 103, 1-cyclopentyl-4-oxo-3-phenyl-4,5-dihydro-1H-pyrrolo[3,2-c]pyridine-7-carbonitrile], the inhibition at 1 µM in assay [1] amounted to 48%; in assay [2], 91%.
Consider `O=c1[nH]cc(Cl)c2c1c(-c1ccc(N3CCS(=O)(=O)CC3)cc1)nn2-c1c(F)cccc1F` [Example 242, 7-chloro-1-(2,6-difluorophenyl)-3-(4-(1,1-dioxidothiomorpholin-4-yl)phenyl)-1,5-dihydro-4H-pyrazolo[4,3-c]pyridin-4-one], for which the inhibition at 1 µM in assay [1] came out at 27%; in assay [2], 97%.
For `Cc1ccccc1-c1cn(-c2csc(C(N)=O)c2)c2c(=O)[nH]cc(C#N)c12` [Example 102, 4-(4-cyano-3-(2-methylphenyl)-7-oxo-6,7-dihydro-1H-pyrrolo[2,3-c]pyridin-1-yl)thiophene-2-carboxamide], the inhibition at 1 µM was determined as 67% in assay [1] and 94% in assay [2].
The corresponding values for `CNC(=O)Cc1cccc(-c2nn(-c3c(F)cccc3F)c3cc[nH]c(=O)c23)c1` [Example 253, 2-(3-(1-(2,6-difluorophenyl)-4-oxo-4,5-dihydro-1H-pyrazolo[4,3-c]pyridin-3-yl)phenyl)-N-methylacetamide] are 87% and 98%.
The like results for `N#Cc1c[nH]c(=O)c2c(-c3ccc(CC(N)=O)cc3)cn(C3CCCC3)c12` [Example 95, 2-(4-(7-cyano-1-cyclopentyl-4-oxo-4,5-dihydro-1H-pyrrolo[3,2-c]pyridin-3-yl)phenyl)acetamide] were, in that order, 86% and 98%.
The like results for `COC(=O)c1cc(-c2cn(C3CCCC3)c3cc[nH]c(=O)c23)cs1` [Example 3, methyl 4-(1-cyclopentyl-4-oxo-4,5-dihydro-1H-pyrrolo[3,2-c]pyridin-3-yl)thiophene-2-carboxylate] were, in that order, 97% and 96%.
On to `COc1ccc(CNc2nn(C(C)(C)C)c3cc[nH]c(=O)c23)cc1` [Example 249, 1-tert-butyl-3-((4-methoxybenzyl)amino)-1,5-dihydro-4H-pyrazolo[4,3-c]pyridin-4-one], for which the inhibition at 10 µM in assay [1] (test compound 10 μM) was 30%; in assay [2] (test compound 10 μM, read-out: Inhibitory rate (%) Tyk2 10 μM), 25%.
On to `NS(=O)(=O)c1ccc(-c2nn(C3CCC(O)(c4ccccc4)CC3)c3cc[nH]c(=O)c23)cc1` (stereo not drawn) [Example 174, 4-(1-(4-hydroxy-4-phenylcyclohexyl)-4-oxo-4,5-dihydro-1H-pyrazolo[4,3-c]pyridin-3-yl)benzenesulfonamide], for which the values for the inhibition at 1 µM in assay [1] and in assay [2] were 99% and 98%, respectively.
Consider `CCC1(O)CCC(n2nc(-c3ccc(S(N)(=O)=O)cc3)c3c(=O)[nH]ccc32)CC1` (stereo not drawn) [Example 210, 4-(1-(4-ethyl-4-hydroxycyclohexyl)-4-oxo-4,5-dihydro-1H-pyrazolo[4,3-c]pyridin-3-yl)benzenesulfonamide], for which the “Inhibitory rate (%) JAK1 10 μM” value in assay [1] (setting [3]) turned out to be 99%. The “Inhibitory rate (%) Tyk2 1 μM” value in assay [2] is recorded as 97%.
With `Cn1ccc(-c2cn(C3CCCC3)c3c(C#N)c[nH]c(=O)c23)n1` [Example 136, 1-cyclopentyl-3-(1-methyl-1H-pyrazol-3-yl)-4-oxo-4,5-dihydro-1H-pyrrolo[3,2-c]pyridine-7-carbonitrile], the figures for the inhibition at 1 µM in assay [1] and in assay [2] were 59% and 93%, respectively.
The corresponding values for `COC(=O)c1cc(-n2nc(-c3ccccc3C)c3c(C#N)c[nH]c(=O)c32)cs1` [Example 68, methyl 4-(4-cyano-3-(2-methylphenyl)-7-oxo-6,7-dihydro-1H-pyrazolo[3,4-c]pyridin-1-yl)thiophene-2-carboxylate] are 4% and 67%.
The corresponding values for `NS(=O)(=O)c1cccc(-c2nn(C3CCCC3)c3cc[nH]c(=O)c23)c1` [Example 159, 3-(1-cyclopentyl-4-oxo-4,5-dihydro-1H-pyrazolo[4,3-c]pyridin-3-yl)benzenesulfonamide] are 91% and 87%.
The like results for `N#Cc1cc(F)c(-n2nc(-c3ccc(N4CCOCC4)cc3)c3c(=O)[nH]ccc32)c(F)c1` [Example 244, 3,5-difluoro-4-(3-(4-(morpholin-4-yl)phenyl)-4-oxo-4,5-dihydro-1H-pyrazolo[4,3-c]pyridin-1-yl)benzonitrile] were, in that order, 89% and 97%.
For `NS(=O)(=O)c1ccc(-c2nn(C3CCOC3)c3cc[nH]c(=O)c23)cc1` (stereo not drawn) [Example 84, 4-(4-oxo-1-(tetrahydrofuran-3-yl)-4,5-dihydro-1H-pyrazolo[4,3-c]pyridin-3-yl)benzenesulfonamide], in assay [1], the “Inhibitory rate (%) JAK1 1 μM” value is on record as 84%. The “Inhibitory rate (%) Tyk2 1 μM” value in assay [2] came to 58%.
In the case of `NC(=O)Cc1cccc(-c2nn(-c3c(F)cccc3F)c3c(Br)c[nH]c(=O)c23)c1` [Example 147, 2-(3-(7-bromo-1-(2,6-difluorophenyl)-4-oxo-4,5-dihydro-1H-pyrazolo[4,3-c]pyridin-3-yl)phenyl)acetamide], the results for the inhibition at 1 µM in assay [1] and in assay [2] were 74% and 99%, respectively.
The like results for `NS(=O)(=O)c1ccc(Nc2nn(C3CCCC3)c3cc[nH]c(=O)c23)cc1` [Example 297, 4-((1-cyclopentyl-4-oxo-4,5-dihydro-1H-pyrazolo[4,3-c]pyridin-3-yl)amino)benzenesulfonamide] were, in that order, 98% and 99%.
The like results for `NC(=O)c1cc(-c2nn(C3CCOCC3)c3cc[nH]c(=O)c23)cs1` [Example 27, 4-(4-oxo-1-(tetrahydro-2H-pyran-4-yl)-4,5-dihydro-1H-pyrazolo[4,3-c]pyridin-3-yl)thiophene-2-carboxamide] were, in that order, 98% and 98%.

The values above are taken from US9371320B2, “Heterocyclic compound” (TAKEDA PHARMACEUTICAL COMPANY LIMITED, priority 2012, dated 2016).
